This is an account of results in publication PMC3408606 (Thrombosis and haemostasis, 2011).

Assay [1] concerns the target T1, triplatin (Triatoma infestans, UniProt Q18NS7).
Assay [2] addresses T1, triplatin. The assay can be described thus: biochemical.
Assay [3] relates to ApoD. Description: Isothermal titration calorimetry of ligand binding to ApoD. Conditions: ITC, ApoD expressed in HEK293 cells. (In ITC the heat of successive injections is recorded.)
In assay [4] the test system is platelets. The assay can be described thus: Platelet aggregation. In kind it is cell-based, human. The conditions noted are these: for Effect on ADP-induced platelet aggregation: indometacin 50 μM.

Structures are written as SMILES. Read-outs that look alike come from different tables or passages of the source.

T1 sequence (Q18NS7 19-182 limits assumed): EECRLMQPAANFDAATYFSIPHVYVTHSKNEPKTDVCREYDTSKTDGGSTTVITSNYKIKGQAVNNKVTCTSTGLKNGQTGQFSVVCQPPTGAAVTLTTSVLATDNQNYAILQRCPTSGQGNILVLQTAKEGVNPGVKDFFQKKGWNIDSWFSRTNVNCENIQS

As for `CCCCC/C=C\C/C=C\C[C@H](O)/C=C/C=C\CCCC(=O)O` [9s-HETE], the Kd (usually the concentration at which binding is half-saturated) in assay [1] was over 1 µM.
As to `CCCCC/C=C\C[C@H](O)/C=C/C=C\C/C=C\CCCC(=O)O` [12(S)-HETE], the Binding to triplatin result in assay [1] (ITC, Figure 3 or not shown) is listed as “not observed”.
The molecule `CCCCC[C@H](O)/C=C/C=C\C/C=C\C/C=C\CCCC(=O)O` [15s-HETE] had a dissociation constant Kd in assay [2] of over 1 µM.
On to `O=C(O)CCC/C=C\C/C=C\C/C=C\C/C=C\CCCCCO` [20-HETE], for which the Binding to triplatin result in assay [1] (ITC, Figure 3 or not shown) was “not observed”.
Consider `Nc1ncnc2c1ncn2[C@@H]1O[C@H](COP(=O)(O)OP(=O)(O)O)[C@@H](O)[C@H]1O` [ADP, adenosine diphosphate], for which the Binding to triplatin result in assay [1] (ITC, Figure 3 or not shown) is listed as “not observed”.
As for `CCCCC/C=C\C/C=C\C/C=C\C/C=C\CCCC(=O)O` [Arachidonic acid, arachidonic acid], the Binding to triplatin entry in assay [1] (ITC, Figure 3 or not shown) was “not observed”. In addition, the “Binding to ApoD” value in assay [3] is reported as “failed to detect binding”.
Regarding `NCCc1c[nH]cn1` [Histamine, histamine], in assay [1] (ITC, Figure 3 or not shown), the Binding to triplatin result is listed as “not observed”.
As to `CCCCC/C=C\C\C=C/C=C/C=C/[C@@H](SC[C@H](NC(=O)CC[C@H](N)C(=O)O)C(=O)NCC(=O)O)[C@@H](O)CCCC(=O)O` [LTC4], the Binding to triplatin entry in assay [1] is “not observed”.
`CCCCC[C@H](O)/C=C/[C@H]1[C@H](O)CC(=O)[C@@H]1CCCCCCC(=O)O` [PGE1]: the Binding to triplatin result in assay [1] is on record as “not observed”.
For `CCCCC[C@H](O)/C=C/[C@@H]1[C@@H](C/C=C\CCCC(=O)O)[C@@H](O)C[C@H]1O` [PGF2α], the ΔG in assay [1] (calculated free energy, ITC 30°C, n.d. = no binding detected) is -9.25 kcal/mol. Besides, the Kd in assay [2] was found to be 0.215 ± 0.01 µM. Besides, the “Binding to ApoD” value in assay [3] is reported as “failed to detect binding”.
In assay [1], `CCCCC[C@H](O)/C=C/[C@H]1C(=O)C=C[C@@H]1C/C=C\CCCC(=O)O` [PGJ2] came in with a Kd of 0.111 ± 0.0034 µM, a TΔS of -1.49 kcal/mol, a ΔG of -9.65 kcal/mol and a ΔH of -11.14 ± 0.38 kcal/mol.
Regarding `O=C(O)CCC/C=C\C[C@@H]1[C@H](CNNC(=O)Nc2ccccc2)[C@H]2CC[C@@H]1O2` [SQ29548], in assay [4], the “Inhibition of collagen-induced platelet aggregation” value was “partial inhibition”.
In the case of `CCCCC[C@H](O)/C=C/[C@H]1OC(O)C[C@H](O)[C@@H]1C/C=C\CCCC(=O)O` (stereo partly shown) [TXB2], in assay [1], binding was put at a Kd of 0.355 ± 0.0067 µM, the TΔS was -2.58 kcal/mol, the ΔG is -8.95 kcal/mol and the ΔH was -11.53 ± 0.92 kcal/mol.
In assay [1], `CCCCC[C@H](O)/C=C/[C@@H]1[C@@H](C/C=C\CCCC(=O)O)[C@H]2CO[C@@H]1C2` [U46619] came in with a Kd of 0.294 ± 0.051 µM, a TΔS of -2.46 kcal/mol, a ΔG of -9.06 kcal/mol and a ΔH of -11.52 ± 0.38 kcal/mol.
As for `CCCCC[C@H](O)/C=C/[C@H]1CC2CC(C2)[C@@H]1C/C=C\CCCC(=O)O` [cTXA2], in assay [1], the Kd stood at 0.369 ± 0.103 µM, the TΔS is -3.90 kcal/mol, the ΔG was -8.93 kcal/mol and the ΔH was -12.83 ± 0.73 kcal/mol. Moreover, the “Binding to ApoD” value in assay [3] is on record as “failed to detect binding”.
In the case of `COc1ccc2c(c1)c(CC(=O)O)c(C)n2C(=O)c1ccc(Cl)cc1` [indometacin], the “Effect on ADP-induced platelet aggregation” value is “not affected” in assay [4] (ADP 1 μM (low dose)) and “attenuated” in assay [4] (ADP 10 μM). Also, in assay [4] (collagen 6.6 μg/ml, inhibitor alone: indometacin 50 μM, SQ29548 0.2 μM, triplatin 1 μM), the “Inhibition of collagen-induced platelet aggregation” value was “partial inhibition”.
